Assays:
Assay type in all cases: physicochemical
[1] = Exposure to elevated relative humidity, form checked by XRPD; details: 93% relative humidity, four days, ambient temperature
Description: XRPD patterns were obtained with a PANalytical X′Pert PRO MPD diffractometer using an incident beam of Cu radiation (1.54059 angstroms) produced using an Optix long, fine-focus source. The diffractometer was configured using the symmetric Bragg-Brentano geometry. Prior to analysis, a silicon sample (NIST SRM 640e) was analyzed to verify the observed position of the Si 111 peak was consistent with the NIST-certified position. A specimen of the sample was prepared as a thin, circular layer centered on a silicon zero-background substrate. Antiscatter slits (SS) were used to minimize the background generated by air. Soller slits for the incident and diffracted beams were used to minimize broadening fro axial divergence. Diffraction patterns were collected using a scanning position-sensitive detector located 240 mm from the sample.

[2] = Dynamic vapor sorption/desorption (DVS) isotherm
Description: Dynamic Vapor Sorption/Desorption (DVS)
Dynamic Vapor Sorption/Desorption (DVS) data was collected on a VTI SGA-100 Vapor Sorption Analyzer, using NaCl and PVP as calibration standards. Samples were not dried prior to analysis. Sorption and desorption data were collected over a range from 5% to 95% relative humidity (RH) at 10% RH increments under a nitrogen purge. The equilibrium criterion used for analysis was less than 0.01000% weight change in 5 minutes with a maximum equilibration time of 3 hours. Data were not corrected for the initial moisture content of the samples.

[3] = Thermogravimetric analysis (TGA); details: up to 200° C.
Description: Thermal Gravimetric Analysis
Thermal Gravimetric Analysis (TGA) was performed using a TA Instruments Discovery thermographic analyzer, with temperature calibration being performed using nickel and Alumel™. Each sample was placed in a pan, hermetically sealed, the lid pierced, and then inserted into the thermal gravimetric furnace which was heated under nitrogen.

Structure (SMILES): C=CC(=O)N1CCN(CCCn2c(=O)c(-c3c(Cl)c(OC)cc(OC)c3Cl)cc3cnc(NC)nc32)CC1 [Form 1, 6-(2,6-dichloro-3,5-dimethoxyphenyl)-2-(methylamino)-8-[3-[4-(prop-2-enoyl)piperazin-1-yl]propyl]-7H,8H-pyrido[2,3-d]pyrimidin-7-one]
- change in form observable by XRPD (physical stability at elevated humidity) [1]: did not result in any changes in form observable by XRPD
- phase change after DVS testing, by XRPD analysis ([2]; sample evaluated after exposure to humidity in the DVS testing): a phase change did not occur
- hygroscopicity (DVS: weight gain in each sorption cycle, hysteresis upon desorption) ([2]; sorption/desorption 5% to 95% RH): not hygroscopic
- weight percent change (DVS isotherm) ([2]; up to a percent relative humidity of about 95% (94.79%)): ≤ 0.31 wt %
- weight loss (TGA) [3]: ≤ 0.20%

Source: patent US10538518B2, “Processes for preparing an FGFR inhibitor” (Principia Biopharma, Inc., priority 2015, dated 2020)
